# Measured values reported in PubChem BioAssay (NCI).
#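 A five-concentration, 48-hour dose response in 96-well plates underlies each endpoint, interpolated linearly between surrounding concentrations. GI50 = concentration required for 50% inhibition of growth. TGI marks complete inhibition of growth.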
# How the values were obtained:
# Assay in all cases: inhibition of tumour cell growth, NCI panel, 48 h
# [1] = test system: 786-0 renal
# [2] = test system: A498 renal
# [3] = test system: A549 NSCLC
# [4] = test system: ACHN renal
# [5] = test system: BT-549 breast
# [6] = test system: CAKI-1 renal
# [7] = test system: CCRF-CEM leukemia
# [8] = test system: COLO 205 colon
# [9] = test system: DU-145 prostate
# [10] = test system: EKVX NSCLC
# [11] = test system: HCC-2998 colon
# [12] = test system: HCT-116 colon
# [13] = test system: HCT-15 colon
# [14] = test system: HL-60(TB) leukemia
# [15] = test system: HOP-62 NSCLC
# [16] = test system: HOP-92 NSCLC
# [17] = test system: HS 578T breast
# [18] = test system: HT29 colon
# [19] = test system: IGROV1 ovarian
# [20] = test system: K-562 leukemia
# [21] = test system: KM12 colon
# [22] = test system: LOX IMVI melanoma
# [23] = test system: M14 melanoma
# [24] = test system: MALME-3M melanoma
# [25] = test system: MCF7 breast
# [26] = test system: MDA-MB-231 breast
# [27] = test system: MDA-MB-435
# [28] = test system: MOLT-4 leukemia
# [29] = test system: NCI-H226 lung
# [30] = test system: NCI-H23 lung
# [31] = test system: NCI-H460 lung
# [32] = test system: NCI-H522 lung
# [33] = test system: NCI/ADR-RES ovarian
# [34] = test system: OVCAR-3 ovarian
# [35] = test system: OVCAR-4 ovarian
# [36] = test system: OVCAR-5 ovarian
# [37] = test system: OVCAR-8 ovarian
# [38] = test system: PC-3 prostate
# [39] = test system: RPMI-8226 leukemia
# [40] = test system: SF-268 CNS
# [41] = test system: SF-295 CNS
# [42] = test system: SF-539 CNS
# [43] = test system: SK-MEL-2 melanoma
# [44] = test system: SK-MEL-28 melanoma
# [45] = test system: SK-MEL-5 melanoma
# [46] = test system: SK-OV-3 ovarian
# [47] = test system: SN12C renal
# [48] = test system: SNB-19 CNS
# [49] = test system: SNB-75 CNS
# [50] = test system: SR leukemia
# [51] = test system: SW-620 colon
# [52] = test system: T-47D breast
# [53] = test system: TK-10 renal
# [54] = test system: U251 CNS
# [55] = test system: UACC-257 melanoma
# [56] = test system: UACC-62 melanoma
# [57] = test system: UO-31 renal
# [58] = test system: RXF 393 renal
compound,measurement,setting,value
CC(C)(C)Nc1nc2c(OCCc3ccccc3)cccn2c1-c1cccc(Oc2ccccc2)c1,GI50,[1],3.8 µM
same,TGI,[1],> 100 µM
same,GI50,[2],8.91 µM
same,TGI,[2],83.9 µM
same,GI50,[3],7.42 µM
same,TGI,[3],> 100 µM
same,GI50,[4],7.67 µM
same,TGI,[4],> 100 µM
same,GI50,[5],3.48 µM
same,TGI,[5],29.7 µM
same,GI50,[6],9.11 µM
same,TGI,[6],> 100 µM
same,GI50,[7],7.07 µM
same,TGI,[7],> 100 µM
same,GI50,[8],12.3 µM
same,TGI,[8],25.9 µM
same,GI50,[9],19.4 µM
same,TGI,[9],> 100 µM
same,GI50,[10],4.54 µM
same,TGI,[10],> 100 µM
same,GI50,[11],6.21 µM
same,TGI,[11],> 100 µM
same,GI50,[12],3.42 µM
same,TGI,[12],> 100 µM
same,GI50,[13],3.89 µM
same,TGI,[13],> 100 µM
same,GI50,[14],18.6 µM
same,TGI,[14],> 100 µM
same,GI50,[15],15.1 µM
same,TGI,[15],> 100 µM
same,GI50,[16],2.22 µM
same,TGI,[16],7.08 µM
same,GI50,[17],5.51 µM
same,TGI,[17],> 100 µM
same,GI50,[18],3.75 µM
same,TGI,[18],> 100 µM
same,GI50,[19],12.4 µM
same,TGI,[19],> 100 µM
same,GI50,[20],6.18 µM
same,TGI,[20],> 100 µM
same,GI50,[21],7.42 µM
same,TGI,[21],> 100 µM
same,GI50,[22],8.54 µM
same,TGI,[22],41.2 µM
same,GI50,[23],18.6 µM
same,TGI,[23],> 100 µM
same,GI50,[24],8.12 µM
same,TGI,[24],> 100 µM
same,GI50,[25],4.34 µM
same,TGI,[25],> 100 µM
same,GI50,[26],18.7 µM
same,TGI,[26],83 µM
same,GI50,[27],4.97 µM
same,TGI,[27],> 100 µM
same,GI50,[28],11 µM
same,TGI,[28],> 100 µM
same,GI50,[29],3.45 µM
same,TGI,[29],> 100 µM
same,GI50,[30],5.86 µM
same,TGI,[30],> 100 µM
same,GI50,[31],4.6 µM
same,TGI,[31],> 100 µM
same,GI50,[32],6.95 µM
same,TGI,[32],> 100 µM
same,GI50,[33],7.51 µM
same,TGI,[33],> 100 µM
same,GI50,[34],3.71 µM
same,TGI,[34],> 100 µM
same,GI50,[35],4 µM
same,TGI,[35],> 100 µM
same,GI50,[36],17.8 µM
same,TGI,[36],> 100 µM
same,GI50,[37],14.8 µM
same,TGI,[37],> 100 µM
same,GI50,[38],4 µM
same,TGI,[38],> 100 µM
same,GI50,[39],3.4 µM
same,TGI,[39],> 100 µM
same,GI50,[40],8.03 µM
same,TGI,[40],> 100 µM
same,GI50,[41],5.54 µM
same,TGI,[41],> 100 µM
same,GI50,[42],16.3 µM
same,TGI,[42],43.1 µM
same,GI50,[43],5.16 µM
same,TGI,[43],26.8 µM
same,GI50,[44],4.87 µM
same,TGI,[44],> 100 µM
same,GI50,[45],4.95 µM
same,TGI,[45],17.6 µM
same,GI50,[46],24.2 µM
same,TGI,[46],> 100 µM
same,GI50,[47],5.17 µM
same,TGI,[47],> 100 µM
same,GI50,[48],6.62 µM
same,TGI,[48],> 100 µM
same,GI50,[49],5.53 µM
same,TGI,[49],> 100 µM
same,GI50,[50],12.3 µM
same,TGI,[50],> 100 µM
same,GI50,[51],7.97 µM
same,TGI,[51],> 100 µM
same,GI50,[52],3.13 µM
same,TGI,[52],> 100 µM
same,GI50,[53],26.9 µM
same,TGI,[53],> 100 µM
same,GI50,[54],3.89 µM
same,TGI,[54],> 100 µM
same,GI50,[55],4.1 µM
same,TGI,[55],> 100 µM
same,GI50,[56],3.43 µM
same,TGI,[56],53.8 µM
same,GI50,[57],3.13 µM
same,TGI,[57],80.7 µM
Cn1ccnc1C(=O)/C=C/c1ccc(NC(=O)Nc2ccccc2)cc1,GI50,[1],19.1 µM
same,TGI,[1],47.3 µM
same,GI50,[2],21.3 µM
same,TGI,[2],65.6 µM
same,GI50,[3],21.8 µM
same,TGI,[3],> 100 µM
same,GI50,[4],23.1 µM
same,TGI,[4],72 µM
same,GI50,[5],13.6 µM
same,TGI,[5],29.9 µM
same,GI50,[6],20.8 µM
same,TGI,[6],99.3 µM
same,GI50,[7],21.5 µM
same,TGI,[7],> 100 µM
same,GI50,[8],16.9 µM
same,TGI,[8],31.6 µM
same,GI50,[9],12.5 µM
same,TGI,[9],32.5 µM
same,GI50,[10],22.6 µM
same,TGI,[10],63.4 µM
same,GI50,[11],14.7 µM
same,TGI,[11],28.6 µM
same,GI50,[12],13.3 µM
same,TGI,[12],26.6 µM
same,GI50,[13],7.16 µM
same,TGI,[13],27.2 µM
same,GI50,[14],15.6 µM
same,TGI,[14],69.1 µM
same,GI50,[15],24.1 µM
same,TGI,[15],69.2 µM
same,GI50,[16],20.6 µM
same,TGI,[16],69.1 µM
same,GI50,[17],33.7 µM
same,TGI,[17],> 100 µM
same,GI50,[18],15.9 µM
same,TGI,[18],31 µM
same,GI50,[19],19.1 µM
same,TGI,[19],64.1 µM
same,GI50,[20],8.29 µM
same,TGI,[20],> 100 µM
same,GI50,[21],18.1 µM
same,TGI,[21],41.8 µM
same,GI50,[23],20.8 µM
same,TGI,[23],58.5 µM
same,GI50,[24],18.3 µM
same,TGI,[24],50.7 µM
same,GI50,[25],15.6 µM
same,TGI,[25],86.3 µM
same,GI50,[26],16.9 µM
same,TGI,[26],34 µM
same,GI50,[27],21.6 µM
same,TGI,[27],58.3 µM
same,GI50,[28],16.5 µM
same,TGI,[28],85.1 µM
same,GI50,[29],22.9 µM
same,TGI,[29],> 100 µM
same,GI50,[30],16.1 µM
same,TGI,[30],37.3 µM
same,GI50,[31],17.2 µM
same,TGI,[31],47.8 µM
same,GI50,[32],13 µM
same,TGI,[32],27.3 µM
same,GI50,[33],29 µM
same,TGI,[33],> 100 µM
same,GI50,[34],29 µM
same,TGI,[34],> 100 µM
same,GI50,[35],20.2 µM
same,TGI,[35],> 100 µM
same,GI50,[36],19.9 µM
same,TGI,[36],55.1 µM
same,GI50,[37],25 µM
same,TGI,[37],> 100 µM
same,GI50,[38],18.4 µM
same,TGI,[38],49.5 µM
same,GI50,[39],16 µM
same,TGI,[39],54.8 µM
same,GI50,[58],12.7 µM
same,TGI,[58],27 µM
same,GI50,[40],28.7 µM
same,TGI,[40],> 100 µM
same,GI50,[41],14.8 µM
same,TGI,[41],46.4 µM
same,GI50,[42],13.9 µM
same,TGI,[42],28.5 µM
same,GI50,[43],16.8 µM
same,TGI,[43],36 µM
same,GI50,[44],16.2 µM
same,TGI,[44],32.8 µM
same,GI50,[45],15.7 µM
same,TGI,[45],29.4 µM
same,GI50,[46],32.5 µM
same,TGI,[46],> 100 µM
same,GI50,[47],14.9 µM
same,TGI,[47],40.4 µM
same,GI50,[48],16.7 µM
same,TGI,[48],42.8 µM
same,GI50,[49],12.9 µM
same,TGI,[49],26 µM
same,GI50,[50],4.9 µM
same,TGI,[50],75.3 µM
same,GI50,[51],18.7 µM
same,TGI,[51],54.3 µM
same,GI50,[52],23.4 µM
same,TGI,[52],> 100 µM
same,GI50,[53],29.8 µM
same,TGI,[53],> 100 µM
same,GI50,[54],13.6 µM
same,TGI,[54],29.6 µM
same,GI50,[55],16.1 µM
same,TGI,[55],38.8 µM
same,GI50,[56],15.3 µM
same,TGI,[56],30.8 µM
same,GI50,[57],14.3 µM
same,TGI,[57],29.4 µM
